Measurements reported in BigSolDB 2.1.

C[C@H]1[C@H](C)CC[C@]2(C(=O)O)CC[C@]3(C)C(=CC[C@@H]4[C@@]5(C)CC[C@H](O)C(C)(C)[C@@H]5CC[C@]43C)[C@H]12
solubility (mole fraction)
Details | 293.6 K | 300.1 K | 305.2 K | 310 K | 320.1 K | 323.2 K | 329.7 K
in ethanol | 0.000514 | 0.000766 | 0.000735 | 0.000761 | 0.00105 | 0.00105 | 0.00116
in ethyl acetate | 0.000777 | 0.000771 | 0.00101 | 0.00113 | 0.00155 | 0.00162 | 0.00186
in isopropanol | 0.00144 | 0.00181 | 0.00197 | 0.00213 | 0.00273 | 0.00275 | 0.00295
in methanol | 0.000723 | 0.000851 | 0.000931 | 0.00102 | 0.00133 | 0.00132 | 0.00146
